This test has as its system PSA, KLF9, PMEPA1 expression. The test is described as follows: Steroid-induced gene expression (PSA, KLF9, PMEPA1) by qPCR in long-term Enz-treated LAPC4 cells. The format is cell-based, human. The conditions noted are these: LAPC4 treated with Enz 36 days, steroid 24 hours. The protocol:
LAPC4 cells were treated with Enz for 36 days and then seeded into 12 well plates coated with poly-DL-ornithine at 50% confluence. […] Total RNA was extracted with a GenElute Mammalian Total RNA miniprep kit (Sigma-Aldrich) and 1 μg RNA was reverse-transcribed to cDNA with the iScript cDNA Synthesis Kit (Bio-Rad). An ABI 7500 Real-Time PCR machine (Applied Biosystems) was used to perform the qPCR analysis, using iTaq Fast SYBR Green Supermix with ROX (Bio-Rad) in 96-well plates at a final reaction volume of 10 μl. The qPCR analysis was carried out in triplicate with suitable primers. Each mRNA transcript was quantitated by normalizing the sample values to RPLP0 and to vehicle treated cells (for steroid treated cells). All gene expression studies were repeated in independent experiments.
In general terms: Real-time PCR tracks product formation cycle by cycle.

Consider `C[C@]12CCC(=O)C[C@@H]1CC[C@@H]1[C@@H]2CC[C@]2(C)[C@@H](O)CC[C@@H]12` [DHT, 5α-dihydrotestosterone], for which the PMEPA1 expression result is on record as “induced with DHT only”. For `C[C@]12CCC(=O)C=C1CC[C@@H]1[C@@H]2[C@@H](O)C[C@@]2(C)[C@H]1CC[C@]2(O)C(=O)CO` [cortisol], the KLF9 expression result is recorded as “induced” and the PSA expression entry is listed as “cortisol induction of PSA expression”.

For the origin of these results see patent US20180296531A1, “STIMULATION OF 11B-HSD2 EXPRESSION TO IMPROVE HORMONAL THERAPY OF STEROID-DEPENDENT DISEASE” (THE CLEVELAND CLINIC FOUNDATION, priority 2015, published 2018).
